Test results: the NIST ThermoML archive (doi:10.1021/je050050p)

Test: xn = mol fraction of the nth substance listed
Settings: Liquid, Vibrating tube method

CN(C)C=O [dimethylformamide] + O=C=O
Settings | mass density [kg/m3]
313.13 K, 8014 kPa, x2 = 0.6235 | 949.79
313.13 K, 9041 kPa, x2 = 0.6235 | 952.04
313.13 K, 10057 kPa, x2 = 0.6235 | 954.25
313.13 K, 10998 kPa, x2 = 0.6235 | 956.28
313.13 K, 11991 kPa, x2 = 0.6235 | 958.34
313.13 K, 12985 kPa, x2 = 0.6235 | 960.34
313.13 K, 14000 kPa, x2 = 0.6235 | 962.36
313.13 K, 14996 kPa, x2 = 0.6235 | 964.28
313.13 K, 16016 kPa, x2 = 0.6235 | 966.23
313.13 K, 16993 kPa, x2 = 0.6235 | 968.02
313.13 K, 18006 kPa, x2 = 0.6235 | 969.86
313.13 K, 18988 kPa, x2 = 0.6235 | 971.7
313.13 K, 20033 kPa, x2 = 0.6235 | 973.47
313.13 K, 21061 kPa, x2 = 0.6235 | 975.25
313.13 K, 22021 kPa, x2 = 0.6235 | 976.88
313.13 K, 22996 kPa, x2 = 0.6235 | 978.52
313.13 K, 24001 kPa, x2 = 0.6235 | 980.14
313.13 K, 25034 kPa, x2 = 0.6235 | 981.79
313.14 K, 9015 kPa, x2 = 0.8091 | 920.03
313.14 K, 9992 kPa, x2 = 0.8091 | 923.92
313.14 K, 10006 kPa, x2 = 0.9311 | 835.47
313.14 K, 11003 kPa, x2 = 0.8091 | 927.79
313.14 K, 11013 kPa, x2 = 0.9311 | 846.13
313.14 K, 12022 kPa, x2 = 0.8091 | 931.54
313.14 K, 12041 kPa, x2 = 0.9311 | 855.75
313.14 K, 13011 kPa, x2 = 0.8091 | 934.99
313.14 K, 13017 kPa, x2 = 0.9311 | 864.01
313.14 K, 14003 kPa, x2 = 0.8091 | 938.37
313.14 K, 14036 kPa, x2 = 0.9311 | 871.87
313.14 K, 15006 kPa, x2 = 0.8091 | 941.63
313.14 K, 15031 kPa, x2 = 0.9311 | 878.95
313.14 K, 16000 kPa, x2 = 0.8091 | 944.75
313.14 K, 16006 kPa, x2 = 0.9311 | 885.43
313.14 K, 16988 kPa, x2 = 0.8091 | 947.8
313.14 K, 17030 kPa, x2 = 0.9311 | 891.82
313.14 K, 17988 kPa, x2 = 0.9311 | 897.48
313.14 K, 18019 kPa, x2 = 0.8091 | 950.82
313.14 K, 18996 kPa, x2 = 0.8091 | 953.63
313.14 K, 19037 kPa, x2 = 0.9311 | 903.28
313.14 K, 20022 kPa, x2 = 0.9311 | 908.47
313.14 K, 20032 kPa, x2 = 0.8091 | 956.51
313.14 K, 21000 kPa, x2 = 0.9311 | 913.41
313.14 K, 21035 kPa, x2 = 0.8091 | 959.25
313.14 K, 21995 kPa, x2 = 0.8091 | 961.81
313.14 K, 22002 kPa, x2 = 0.9311 | 918.23
313.14 K, 23016 kPa, x2 = 0.9311 | 922.92
313.14 K, 23033 kPa, x2 = 0.8091 | 964.52
313.14 K, 24006 kPa, x2 = 0.9311 | 927.35
313.14 K, 24015 kPa, x2 = 0.8091 | 966.98
313.14 K, 25006 kPa, x2 = 0.8091 | 969.42
313.14 K, 25020 kPa, x2 = 0.9311 | 931.7
313.15 K, 4032 kPa, x2 = 0.2876 | 948.43
313.15 K, 5041 kPa, x2 = 0.2876 | 949.39
313.15 K, 6004 kPa, x2 = 0.2876 | 950.24
313.15 K, 6005 kPa, x2 = 0.4268 | 955.61
313.15 K, 6022 kPa, x2 = 0.4461 | 956.18
313.15 K, 6967 kPa, x2 = 0.2876 | 951.12
313.15 K, 6991 kPa, x2 = 0.4461 | 957.31
313.15 K, 7013 kPa, x2 = 0.4268 | 956.75
313.15 K, 8002 kPa, x2 = 0.2876 | 952.05
313.15 K, 8008 kPa, x2 = 0.4268 | 957.9
313.15 K, 8024 kPa, x2 = 0.4461 | 958.53
313.15 K, 9005 kPa, x2 = 0.2876 | 952.94
313.15 K, 9006 kPa, x2 = 0.4461 | 959.66
313.15 K, 9014 kPa, x2 = 0.4268 | 958.99
313.15 K, 9998 kPa, x2 = 0.4461 | 960.8
313.15 K, 10000 kPa, x2 = 0.2876 | 953.81
313.15 K, 10006 kPa, x2 = 0.4268 | 960.05
313.15 K, 10989 kPa, x2 = 0.4461 | 961.9
313.15 K, 11017 kPa, x2 = 0.2876 | 954.68
313.15 K, 11017 kPa, x2 = 0.4268 | 961.14
313.15 K, 12006 kPa, x2 = 0.4268 | 962.22
313.15 K, 12024 kPa, x2 = 0.2876 | 955.56
313.15 K, 12025 kPa, x2 = 0.4461 | 963.02
313.15 K, 13003 kPa, x2 = 0.4461 | 964.12
313.15 K, 13004 kPa, x2 = 0.4268 | 963.25
313.15 K, 13007 kPa, x2 = 0.2876 | 956.41
313.15 K, 13997 kPa, x2 = 0.4268 | 964.28
313.15 K, 13999 kPa, x2 = 0.4461 | 965.2
313.15 K, 14004 kPa, x2 = 0.2876 | 957.26
313.15 K, 14993 kPa, x2 = 0.4461 | 966.26
313.15 K, 15003 kPa, x2 = 0.4268 | 965.36
313.15 K, 15006 kPa, x2 = 0.2876 | 958.1
313.15 K, 15999 kPa, x2 = 0.2876 | 958.91
313.15 K, 16006 kPa, x2 = 0.4461 | 967.34
313.15 K, 16007 kPa, x2 = 0.4268 | 966.35
313.15 K, 17000 kPa, x2 = 0.4268 | 967.35
313.15 K, 17005 kPa, x2 = 0.2876 | 959.75
313.15 K, 17007 kPa, x2 = 0.4461 | 968.38
313.15 K, 17985 kPa, x2 = 0.4461 | 969.42
313.15 K, 17994 kPa, x2 = 0.4268 | 968.36
313.15 K, 18009 kPa, x2 = 0.2876 | 960.57
313.15 K, 19015 kPa, x2 = 0.4461 | 970.46
313.15 K, 19017 kPa, x2 = 0.4268 | 969.38
313.15 K, 19021 kPa, x2 = 0.2876 | 961.39
313.15 K, 19994 kPa, x2 = 0.4268 | 970.35
313.15 K, 20001 kPa, x2 = 0.2876 | 962.21
313.15 K, 20007 kPa, x2 = 0.4461 | 971.48
313.15 K, 20983 kPa, x2 = 0.4268 | 971.33
313.15 K, 20996 kPa, x2 = 0.4461 | 972.47
313.15 K, 21004 kPa, x2 = 0.2876 | 963
313.15 K, 22022 kPa, x2 = 0.2876 | 963.82
313.15 K, 22022 kPa, x2 = 0.4461 | 973.5
313.15 K, 22024 kPa, x2 = 0.4268 | 972.32
313.15 K, 22993 kPa, x2 = 0.4461 | 974.47
313.15 K, 23016 kPa, x2 = 0.2876 | 964.58
313.15 K, 23020 kPa, x2 = 0.4268 | 973.26
313.15 K, 23989 kPa, x2 = 0.2876 | 965.35
313.15 K, 23996 kPa, x2 = 0.4461 | 975.45
313.15 K, 24016 kPa, x2 = 0.4268 | 974.2
313.15 K, 24992 kPa, x2 = 0.4461 | 976.41
313.15 K, 24996 kPa, x2 = 0.4268 | 975.14
313.15 K, 25004 kPa, x2 = 0.2876 | 966.15
313.16 K, 5026 kPa, x2 = 0.4502 | 955.28
313.16 K, 5988 kPa, x2 = 0.4502 | 956.32
313.16 K, 6028 kPa, x2 = 0.4068 | 955.07
313.16 K, 7004 kPa, x2 = 0.4502 | 957.42
313.16 K, 7010 kPa, x2 = 0.4068 | 956.12
313.16 K, 7999 kPa, x2 = 0.4502 | 958.57
313.16 K, 8028 kPa, x2 = 0.4068 | 957.19
313.16 K, 9005 kPa, x2 = 0.4068 | 958.24
313.16 K, 9031 kPa, x2 = 0.4502 | 959.69
313.16 K, 10012 kPa, x2 = 0.4502 | 960.79
313.16 K, 10041 kPa, x2 = 0.4068 | 959.33
313.16 K, 10994 kPa, x2 = 0.4068 | 960.3
313.16 K, 11036 kPa, x2 = 0.4502 | 961.92
313.16 K, 11990 kPa, x2 = 0.4068 | 961.32
313.16 K, 12022 kPa, x2 = 0.4502 | 963.01
313.16 K, 12989 kPa, x2 = 0.4068 | 962.33
313.16 K, 13014 kPa, x2 = 0.4502 | 964.13
313.16 K, 14015 kPa, x2 = 0.4502 | 965.19
313.16 K, 14027 kPa, x2 = 0.4068 | 963.34
313.16 K, 14992 kPa, x2 = 0.4068 | 964.31
313.16 K, 15005 kPa, x2 = 0.4502 | 966.24
313.16 K, 15994 kPa, x2 = 0.4068 | 965.3
313.16 K, 16019 kPa, x2 = 0.4502 | 967.32
313.16 K, 16994 kPa, x2 = 0.4068 | 966.27
313.16 K, 17003 kPa, x2 = 0.4502 | 968.34
313.16 K, 17999 kPa, x2 = 0.4502 | 969.4
313.16 K, 18006 kPa, x2 = 0.4068 | 967.25
313.16 K, 18978 kPa, x2 = 0.4068 | 968.19
313.16 K, 19033 kPa, x2 = 0.4502 | 970.43
313.16 K, 19978 kPa, x2 = 0.4502 | 971.41
313.16 K, 20043 kPa, x2 = 0.4068 | 969.19
313.16 K, 21007 kPa, x2 = 0.4502 | 972.47
313.16 K, 21020 kPa, x2 = 0.4068 | 970.1
313.16 K, 22002 kPa, x2 = 0.4068 | 970.98
313.16 K, 22023 kPa, x2 = 0.4502 | 973.48
313.16 K, 23040 kPa, x2 = 0.4502 | 974.49
313.16 K, 23059 kPa, x2 = 0.4068 | 971.98
313.16 K, 24007 kPa, x2 = 0.4502 | 975.45
313.16 K, 24032 kPa, x2 = 0.4068 | 972.87
313.16 K, 24995 kPa, x2 = 0.4502 | 976.42
313.16 K, 25024 kPa, x2 = 0.4068 | 973.76
323.07 K, 9001 kPa, x2 = 0.6235 | 928.72
323.07 K, 10031 kPa, x2 = 0.6235 | 931.44
323.07 K, 11013 kPa, x2 = 0.6235 | 933.93
323.07 K, 12042 kPa, x2 = 0.6235 | 936.47
323.07 K, 13033 kPa, x2 = 0.6235 | 938.86
323.07 K, 13992 kPa, x2 = 0.6235 | 941.1
323.07 K, 14972 kPa, x2 = 0.6235 | 943.31
323.07 K, 15993 kPa, x2 = 0.6235 | 945.57
323.07 K, 16998 kPa, x2 = 0.6235 | 947.71
323.07 K, 18015 kPa, x2 = 0.6235 | 949.84
323.07 K, 18988 kPa, x2 = 0.6235 | 951.84
323.07 K, 20012 kPa, x2 = 0.6235 | 953.89
